{"source": "patent US20210121440A1", "about": "“ACNE TREATMENT” (priority 2003, published 2021)", "key": {"patients": {"test_system": "patients", "conditions": "oral administration; especially older patients having an impaired renal function; cited from earlier work"}, "surface lipids": {"test_system": "surface lipids", "assay": "Surface lipids using Sebumeter", "format": "in vivo, human", "conditions": "4×600 mg/d p.o. for three months", "procedure": "(§1) For treating the inflammatory acne 10 patients having acne papulopustolosa (m:f 6:4, age 19±5 years) were treated orally with a selective 5-lipoxygenase inhibitor, namely with (±)-1-1.benzo[b]thien—2-ylethyl)-1-hydroxyurea (Zileuton) 4×600 mg/d p.o. for a period of three months. The number of lesions and the general degree of severity index according to Allen and […] (Allen B S, Smith J G: Various parameters for grading acne. Arch Dermatol. 1982; 118: 23-25) were clinically judged. Moreover, the surface lipids using Sebumeter® and the liver enzymes in the serum were determined at the beginning of the study, in the 2nd, 4th, 8th and 12th weeks of treatment and 2 weeks after completion of the therapy. The LTB4 detection in the blood by radio-immuno-assay and the lipid fractions in the serum by chromatography were examined at the beginning and in the 12th week of treatment. The patients were photographed at the beginning and at the end of the treatment. The degree of severity index of acne decreased continuously and dependent on the time (41±28% of the initial value in the 12th week of treatment; p<0.05). […] The degree of clinical improvement strongly correlated with the reduction of the total lipids in the sebum (p=0.0009, r^2=0.81) and the free fatty acid (p=0.0003, r^2=0.82). […] To sum up, thus first indirect proofs could be furnished for a genuine inflammatory etiology of acne."}, "[1]": {"test_system": "patients having acne papulopustolosa", "assay": "Side-effects in treated acne patients", "format": "in vivo, human", "conditions": "4×600 mg/d p.o. for three months; 10 patients", "procedure": "as §1, with “of acne. […]” for “of acne.”"}, "[2]": {"test_system": "total lipids and pro-inflammatory lipid fractions in the sebum", "assay": "Lipids and lipid fractions in the sebum by chromatography", "format": "in vivo, human", "conditions": "12th week of treatment, 4×600 mg/d p.o.", "procedure": "as §1"}, "LTB4 in the blood": {"test_system": "LTB4 in the blood", "assay": "LTB4 detection in the blood by radio-immuno-assay", "format": "in vivo, human", "conditions": "beginning vs 12th week of treatment; 4×600 mg/d p.o.", "procedure": "as §1"}, "[3]": {"test_system": "patients having acne papulopustolosa", "assay": "Clinical judgement of number of lesions and degree of severity index (Allen and Smith) in acne patients treated orally", "format": "in vivo, human", "procedure": "as §1"}}, "data": [{"smiles": "CC(C(=O)O)c1ccc2oc(-c3ccc(Cl)cc3)nc2c1", "note": "(centres unmarked) [benoxaprofen]", "values": [{"measurement": "disadvantageous effects observed in clinical tests", "setting": "patients", "value": "a photosensitivity, exzema, milii, onycholysis and a hepatotoxicity with jaundice"}]}, {"smiles": "CC(c1cc2ccccc2s1)N(O)C(N)=O", "note": "(racemic) [Zileuton, (±)-1-(1-benzo[b]thien-2-ylethyl)-1-hydroxy-urea]", "values": [{"measurement": "surface lipids", "setting": "surface lipids", "value": "not influenced"}, {"measurement": "subjective and objective side-effects", "setting": "[1]", "value": "Neither subjective nor objective side-effects were noticed"}, {"measurement": "decrease of lipoperoxides in the sebum", "setting": "[2]", "value": "26±30", "unit": "%"}, {"measurement": "decrease of pro-inflammatory free fatty acids in the sebum", "setting": "[2]", "value": "22±18", "unit": "%"}, {"measurement": "decrease of total lipids in the sebum", "setting": "[2]; p<0.05", "value": "35±51", "unit": "%"}, {"measurement": "LTB4 in the blood", "setting": "LTB4 in the blood", "value": "not influenced"}, {"measurement": "response of comedones", "setting": "[3]; 4×600 mg/d p.o. for three months", "value": "comedones did not respond"}, {"measurement": "decrease of the number of inflammatory lesions up to", "setting": "[3]; 4×600 mg/d p.o. for three months, p<0.01", "value": "29±24", "unit": "%"}, {"measurement": "degree of severity index of acne, % of the initial value", "setting": "[3]; 12th week of treatment, 4×600 mg/d p.o., 10 patients, p<0.05", "value": "41±28", "unit": "%"}, {"measurement": "all examined parameters during follow-up", "setting": "[3]; two-weeks' follow-up phase after completion of the therapy", "value": "remained practically unchanged"}]}]}
